Data on 6 compounds can be found in US8741836B2, “Polypeptides” (Novo Nordisk A/S, priority 2011, dated 2014).

The nature of data set [1]: Assay (III) ThT fibrillation assay for physical stability. In kind it is physicochemical. The note with it: for ThT pH 4.0 lag time: pH 4.0, ThT fibrillation assay. The method, boiled down:
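Freshly prepared, pH-adjusted formulations with 1 μM ThT incubated at 37 °C under 960 rpm orbital shaking (1 mm), fluorescence (ex 444, em 485 nm) read every 20 min. […] Peptide content before and after measured by reverse-phase HPLC against pramlintide standard.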

The next data set relates to ad libitum fed rat. Nature of the data set: Assay (I) efficacy testing on appetite (food intake) using an ad libitum fed rat model. The conditions noted are these: 3 nmol/kg. The class given is in vivo, Sprague Dawley (SD) rats. The essentials:
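Ad libitum fed Sprague Dawley rats, 200-250 g, singly housed on reversed light cycle, got one ip, po or sc dose of 0.01-3 mg/kg just before lights off; groups of 5-8 with vehicle control. Food intake recorded hourly for 7 h, then at 24 h and sometimes 48 h; Grubbs outliers excluded.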

Molecules are shown by their SMILES. Starred links: 1 amine or outer side, 2 acyl side, 3 side chain; linkers in the order of their positions; H or OH if unused. Positions of bridges follow the written chain, without caps; N, C: chain ends. Residues, ends and D or L forms follow the SMILES beside them. *: point of attachment. C20 diacid = O=C(O)CCCCCCCCCCCCCCCCCCC(=O)*; C18 diacid = O=C(O)CCCCCCCCCCCCCCCCC(=O)*; γGlu = O=C(O)[C@H](CCC(=O)[*:2])N[*:1]

On to `CC[C@H](C)[C@H](NC(=O)[C@@H]1CCCN1C(=O)CNC(=O)[C@H](Cc1ccccc1)NC(=O)[C@H](CC(N)=O)NC(=O)[C@H](CC(N)=O)NC(=O)[C@H](CO)NC(=O)[C@H](CO)NC(=O)[C@H](Cc1c[nH]cn1)NC(=O)[C@H](Cc1c[nH]cn1)NC(=O)[C@H](CC(C)C)NC(=O)[C@H](Cc1ccccc1)NC(=O)[C@H](CCC(=O)O)NC(=O)[C@H](C)NC(=O)[C@H](CC(C)C)NC(=O)[C@H](CCCNC(=N)N)NC(=O)[C@H](CCC(N)=O)NC(=O)[C@@H](NC(=O)[C@H](C)NC(=O)[C@@H]1CSSC[C@H](NC(=O)[C@H](CCCCN)NC(=O)CC[C@H](NC(=O)CCCCCCCCCCCCCCCCCCC(=O)O)C(=O)O)C(=O)N[C@@H](CC(N)=O)C(=O)N[C@@H]([C@@H](C)O)C(=O)N[C@@H](C)C(=O)N[C@@H]([C@@H](C)O)C(=O)N1)[C@@H](C)O)C(=O)N[C@@H](CC(C)C)C(=O)N1CCC[C@H]1C(=O)N1CCC[C@H]1C(=O)N[C@H](C(=O)N[C@@H](CC(N)=O)C(=O)N[C@H](C(=O)NCC(=O)N[C@@H](CO)C(=O)N[C@@H](CC(N)=O)C(=O)N[C@H](C(=O)N1CCC[C@H]1C(N)=O)[C@@H](C)O)C(C)C)[C@@H](C)O` [Example 52, N-alpha-[(S)-4-Carboxy-4-(19-carboxynonadecanoylamino)butyryl]-[Glu14,His17,Pro37]-pramlintide] ({C20 diacid-γGlu}-KCNTATCATQRLAEFLHHSSNNFGPILPPTNVGSNTP-NH2; disulfide 2-7), for which the “ThT pH 4.0 lag time” value in data set [1] is on record as more than 45 h. Also, in the data set with ad libitum fed rat, the “Food intake reduction 0-24 h 3 nmol/kg (%)” value was 62% and the “Food intake reduction 24-48 h 3 nmol/kg (%)” value is given as 74%.

Consider `CC[C@H](C)[C@H](NC(=O)[C@@H]1CCCN1C(=O)CNC(=O)[C@H](Cc1ccccc1)NC(=O)[C@H](CC(N)=O)NC(=O)[C@H](CC(N)=O)NC(=O)[C@H](CO)NC(=O)[C@H](CO)NC(=O)[C@H](Cc1c[nH]cn1)NC(=O)[C@H](Cc1c[nH]cn1)NC(=O)[C@H](CC(C)C)NC(=O)[C@H](Cc1ccccc1)NC(=O)[C@H](CCC(=O)O)NC(=O)[C@H](C)NC(=O)[C@H](CC(C)C)NC(=O)[C@H](CCCNC(=N)N)NC(=O)[C@H](CCC(N)=O)NC(=O)[C@@H](NC(=O)[C@H](C)NC(=O)[C@@H]1CSSC[C@H](NC(=O)[C@H](CCCNC(=N)N)NC(=O)CC[C@H](NC(=O)CCCCCCCCCCCCCCCCCCC(=O)O)C(=O)O)C(=O)N[C@@H](CC(N)=O)C(=O)N[C@@H]([C@@H](C)O)C(=O)N[C@@H](C)C(=O)N[C@@H]([C@@H](C)O)C(=O)N1)[C@@H](C)O)C(=O)N[C@@H](CC(C)C)C(=O)N1CCC[C@H]1C(=O)N1CCC[C@H]1C(=O)N[C@H](C(=O)N[C@@H](CC(N)=O)C(=O)N[C@H](C(=O)NCC(=O)N[C@@H](CO)C(=O)N[C@@H](CC(N)=O)C(=O)N[C@H](C(=O)N1CCC[C@H]1C(N)=O)[C@@H](C)O)C(C)C)[C@@H](C)O` [Example 96, N-alpha-[(S)-4-Carboxy-4-(19-carboxynonadecanoylamino)butyryl]-[Arg1,Glu14,His17,Pro37]-pramlintide] ({C20 diacid-γGlu}-RCNTATCATQRLAEFLHHSSNNFGPILPPTNVGSNTP-NH2; disulfide 2-7), for which, in data set [1], the “ThT pH 4.0 lag time (physical stability in fibrillogenesis assay)” value is given as more than 45 h and the “ThT pH 4.0 lag time” value is more than 45 h. Moreover, in the data set with ad libitum fed rat, the “Food intake reduction 0-24 h 3 nmol/kg (%)” value was 69% and the “Food intake reduction 24-48 h 3 nmol/kg (%)” value is given as 89%.

Consider `CC[C@H](C)[C@H](NC(=O)[C@@H]1CCCN1C(=O)CNC(=O)[C@H](Cc1ccccc1)NC(=O)[C@H](CC(N)=O)NC(=O)[C@H](CC(N)=O)NC(=O)[C@H](CO)NC(=O)[C@H](CO)NC(=O)[C@H](Cc1c[nH]cn1)NC(=O)[C@H](Cc1c[nH]cn1)NC(=O)[C@H](CC(C)C)NC(=O)[C@H](Cc1ccccc1)NC(=O)[C@H](CCC(=O)O)NC(=O)[C@H](C)NC(=O)[C@H](CC(C)C)NC(=O)[C@H](CCCNC(=N)N)NC(=O)[C@H](CCC(N)=O)NC(=O)[C@@H](NC(=O)[C@H](C)NC(=O)[C@@H]1CSSC[C@H](NC(=O)[C@H](CCCNC(=N)N)NC(=O)CNC(=O)CC[C@H](NC(=O)CCCCCCCCCCCCCCCCCCC(=O)O)C(=O)O)C(=O)N[C@@H](CC(N)=O)C(=O)N[C@@H]([C@@H](C)O)C(=O)N[C@@H](C)C(=O)N[C@@H]([C@@H](C)O)C(=O)N1)[C@@H](C)O)C(=O)N[C@@H](CC(C)C)C(=O)N1CCC[C@H]1C(=O)N1CCC[C@H]1C(=O)N[C@H](C(=O)N[C@@H](CC(N)=O)C(=O)N[C@H](C(=O)NCC(=O)N[C@@H](CO)C(=O)N[C@@H](CC(N)=O)C(=O)N[C@H](C(=O)N1CCC[C@H]1C(N)=O)[C@@H](C)O)C(C)C)[C@@H](C)O` [Example 101, N-alpha-[(S)-4-Carboxy-4-(19-carboxynonadecanoylamino)butyryl]-Gly-[Arg1,Glu14,His17,Pro37]-pramlintide] ({C20 diacid-γGlu}-GRCNTATCATQRLAEFLHHSSNNFGPILPPTNVGSNTP-NH2; disulfide 3-8), for which, in data set [1], the “ThT pH 4.0 lag time (physical stability in fibrillogenesis assay)” value was more than 45 h and the “ThT pH 4.0 lag time” value is on record as more than 45 h. Further, in the data set on ad libitum fed rat, the “Food intake reduction 0-24 h 3 nmol/kg (%)” value is 70% and the “Food intake reduction 24-48 h 3 nmol/kg (%)” value came to 90%.

`CC[C@H](C)[C@H](NC(=O)[C@@H]1CCCN1C(=O)CNC(=O)[C@H](Cc1ccccc1)NC(=O)[C@H](CC(N)=O)NC(=O)[C@H](CC(N)=O)NC(=O)[C@H](CO)NC(=O)[C@H](CO)NC(=O)[C@H](Cc1c[nH]cn1)NC(=O)[C@H](CCCNC(=N)N)NC(=O)[C@H](CC(C)C)NC(=O)[C@H](Cc1ccccc1)NC(=O)[C@H](CCC(=O)O)NC(=O)[C@H](C)NC(=O)[C@H](CC(C)C)NC(=O)[C@H](CCCNC(=N)N)NC(=O)[C@H](CCC(N)=O)NC(=O)[C@@H](NC(=O)[C@H](C)NC(=O)[C@@H]1CSSC[C@H](NC(=O)[C@H](CCCCN)NC(=O)CC[C@H](NC(=O)CCCCCCCCCCCCCCCCCCC(=O)O)C(=O)O)C(=O)N[C@@H](CC(N)=O)C(=O)N[C@@H]([C@@H](C)O)C(=O)N[C@@H](C)C(=O)N[C@@H]([C@@H](C)O)C(=O)N1)[C@@H](C)O)C(=O)N[C@@H](CC(C)C)C(=O)N1CCC[C@H]1C(=O)N1CCC[C@H]1C(=O)N[C@H](C(=O)N[C@@H](CC(N)=O)C(=O)N[C@H](C(=O)NCC(=O)N[C@@H](CO)C(=O)N[C@@H](Cc1c[nH]cn1)C(=O)N[C@H](C(=O)N[C@@H](Cc1ccc(O)cc1)C(N)=O)[C@@H](C)O)C(C)C)[C@@H](C)O` [Example 57, N-alpha-[(S)-4-Carboxy-4-(19-carboxynonadecanoylamino)butyryl]-[Glu14,Arg17,His35]-pramlintide] ({C20 diacid-γGlu}-KCNTATCATQRLAEFLRHSSNNFGPILPPTNVGSHTY-NH2; disulfide 2-7 (inferred)): the “ThT pH 4.0 lag time” value in data set [1] is more than 45 h. In addition, in the data set with ad libitum fed rat, the “Food intake reduction 0-24 h 3 nmol/kg (%)” value turned out to be 17% and the “Food intake reduction 24-48 h 3 nmol/kg (%)” value was determined as 0%.

As to `CC[C@H](C)[C@H](NC(=O)[C@@H]1CCCN1C(=O)CNC(=O)[C@H](Cc1ccccc1)NC(=O)[C@H](CC(N)=O)NC(=O)[C@H](CC(N)=O)NC(=O)[C@H](CO)NC(=O)[C@H](CO)NC(=O)[C@H](Cc1c[nH]cn1)NC(=O)[C@H](CCCNC(=N)N)NC(=O)[C@H](CC(C)C)NC(=O)[C@H](Cc1ccccc1)NC(=O)[C@H](CCC(=O)O)NC(=O)[C@H](C)NC(=O)[C@H](CC(C)C)NC(=O)[C@H](CCCNC(=N)N)NC(=O)[C@H](CCC(N)=O)NC(=O)[C@@H](NC(=O)[C@H](C)NC(=O)[C@@H]1CSSC[C@H](NC(=O)[C@H](CCCCN)NC(=O)[C@H](Cc2c[nH]cn2)NC(=O)CC[C@H](NC(=O)CCCCCCCCCCCCCCCCC(=O)O)C(=O)O)C(=O)N[C@@H](CC(N)=O)C(=O)N[C@@H]([C@@H](C)O)C(=O)N[C@@H](C)C(=O)N[C@@H]([C@@H](C)O)C(=O)N1)[C@@H](C)O)C(=O)N[C@@H](CC(C)C)C(=O)N1CCC[C@H]1C(=O)N1CCC[C@H]1C(=O)N[C@H](C(=O)N[C@@H](CC(N)=O)C(=O)N[C@H](C(=O)NCC(=O)N[C@@H](CO)C(=O)N[C@@H](Cc1c[nH]cn1)C(=O)N[C@H](C(=O)N[C@@H](Cc1ccc(O)cc1)C(N)=O)[C@@H](C)O)C(C)C)[C@@H](C)O` [Example 71, N-alpha-[(S)-4-Carboxy-4-(17-carboxyheptadecanoylamino)butyryl]-His-[Glu14,Arg17,His35]-pramlintide] ({C18 diacid-γGlu}-HKCNTATCATQRLAEFLRHSSNNFGPILPPTNVGSHTY-NH2; disulfide 3-8 (inferred)), the “ThT pH 4.0 lag time” value in data set [1] is more than 45 h. In addition, in the data set on ad libitum fed rat, the “Food intake reduction 0-24 h 3 nmol/kg (%)” value amounted to 10% and the “Food intake reduction 24-48 h 3 nmol/kg (%)” value is 0%.

Consider `CC[C@H](C)[C@H](NC(=O)[C@@H]1CCCN1C(=O)CNC(=O)[C@H](Cc1ccccc1)NC(=O)[C@H](CC(N)=O)NC(=O)[C@H](CC(N)=O)NC(=O)[C@H](CO)NC(=O)[C@H](CO)NC(=O)[C@H](Cc1c[nH]cn1)NC(=O)[C@H](CCCNC(=N)N)NC(=O)[C@H](CC(C)C)NC(=O)[C@H](Cc1ccccc1)NC(=O)[C@H](CCC(=O)O)NC(=O)[C@H](C)NC(=O)[C@H](CC(C)C)NC(=O)[C@H](CCCNC(=N)N)NC(=O)[C@H](CCC(N)=O)NC(=O)[C@@H](NC(=O)[C@H](C)NC(=O)[C@@H]1CSSC[C@H](NC(=O)[C@H](CCCCN)NC(=O)CC[C@H](NC(=O)CCCCCCCCCCCCCCCCCCC(=O)O)C(=O)O)C(=O)N[C@@H](CC(N)=O)C(=O)N[C@@H]([C@@H](C)O)C(=O)N[C@@H](C)C(=O)N[C@@H]([C@@H](C)O)C(=O)N1)[C@@H](C)O)C(=O)N[C@@H](CC(C)C)C(=O)N1CCC[C@H]1C(=O)N1CCC[C@H]1C(=O)N[C@H](C(=O)N[C@@H](CC(N)=O)C(=O)N[C@H](C(=O)NCC(=O)N[C@@H](CO)C(=O)N[C@@H](CC(N)=O)C(=O)N[C@H](C(=O)N1CCC[C@H]1C(N)=O)[C@@H](C)O)C(C)C)[C@@H](C)O` [Example 53, N-alpha-[(S)-4-Carboxy-4-(19-carboxynonadecanoylamino)butyryl]-[Glu14,Arg17,Pro37]-pramlintide], for which, in data set [1], the “ThT pH 4.0 lag time (physical stability in fibrillogenesis assay)” value is reported as more than 45 h and the “ThT pH 4.0 lag time” value is recorded as more than 45 h. Further, in the data set on ad libitum fed rat, the “Food intake reduction 0-24 h 3 nmol/kg (%)” value is 40% and the “Food intake reduction 24-48 h 3 nmol/kg (%)” value was found to be 28%.
